Converted amounts (≈) assume the structure as drawn.
Columns and labels:
Escherichia coli = assay: Antibacterial activity against Escherichia coli ATCC 49696 after 20 hrs by microdilution assay; assay type: functional; conditions: ATCC 49696, 20 h
Staphylococcus aureus [1] = assay: Antibacterial activity against methicillin-sensitive Staphylococcus aureus ATCC 13150 after 20 hrs by microdilution assay; assay type: functional
[2] = Toxicity in sheep erythrocytes assessed as hemolysis at 100 uM after 90 mins; assay type: cell-based, Ovis aries, Erythrocyte; conditions: read-out: Activity
Staphylococcus aureus [3] = assay: Antibacterial activity against Staphylococcus aureus; assay type: functional
Staphylococcus aureus [4] = assay: Antibacterial activity against methicillin-resistant Staphylococcus aureus; assay type: functional
[5] = Toxicity in sheep erythrocytes assessed as hemolysis at 300 uM after 90 mins; assay type: cell-based, Ovis aries, Erythrocyte; conditions: read-out: Activity
[6] = Toxicity in sheep erythrocytes assessed as hemolysis at 25 uM after 90 mins; assay type: cell-based, Ovis aries, Erythrocyte; conditions: read-out: Activity
[7] = Staphylococcus aureus, ATCC 13150, 20 h, read-out: MIC

Row | SMILES | MIC (Escherichia coli) [µM] | MIC (Staphylococcus aureus [1]; [7]) [µM] | also measured
1 | CN1CCC(c2ccc(O)c(C(=O)/C=C/c3ccccc3Cl)c2)CC1 | > 100 | 25 (≈ 8.9 µg/mL) | hemolysis at 1.5 h, 100 µM [2]: 14.8%
2 | COc1cc(OC)c(C2CCN(C)CC2)cc1C(=O)/C=C/c1ccc(C)cc1 | > 100 | > 100 | 
3 | COc1ccccc1/C=C/C(=O)c1cc(C2CCN(C)CC2)c(OC)cc1OC | > 100 | > 100 | 
4 | COc1ccc(/C=C/C(=O)c2cc(C3CCN(C)CC3)c(OC)cc2OC)cc1 | > 100 | > 100 | 
5 | COc1cc(OC)c(C2CCN(C)CC2)cc1C(=O)/C=C/c1ccccc1F | > 100 | > 100 | 
6 | COc1cc(OC)c(C2CCN(C)CC2)cc1C(=O)/C=C/c1ccc(C(F)(F)F)cc1 | > 100 | 50 (≈ 21.7 µg/mL) | 
7 | COc1cc(OC)c(C2CCN(C)CC2)c(O)c1C(=O)/C=C/c1ccc(Cl)cc1 | > 100 | 25 (≈ 10.4 µg/mL) | hemolysis at 1.5 h, 100 µM [2]: 5.5%
8 | COc1ccc(C(=O)/C=C/c2ccc(N3CCN(C)CC3)cc2)c(OC)c1 | > 100 | > 100 | 
9 | COc1cc(OC)c(C2CCN(C)CC2)c(O)c1C(=O)/C=C/c1ccccc1F | > 100 | > 100 | 
10 | COc1cc(OC)c(C2CCN(C)CC2)c(O)c1C(=O)/C=C/c1cccc(Cl)c1 | > 100 | 6.25 (≈ 2.6 µg/mL) | hemolysis at 1.5 h, 100 µM [2]: 6.5%
11 | COc1cc(OC)c(C2CCN(C)CC2)c(O)c1C(=O)/C=C/c1ccc(C#N)cc1 | > 100 | > 100 | 
12 | COc1cc(OC)c(C2CCN(C)CC2)cc1C(=O)/C=C/c1ccncc1 | > 100 | > 100 | 
13 | COc1cc(OC)c(C2CCN(C)CC2)c(O)c1C(=O)/C=C/c1ccc(N(C)C)cc1 | > 100 | 25 (≈ 10.6 µg/mL) | hemolysis at 1.5 h, 100 µM [2]: 10.3%
14 | COc1cc(O)c(C(=O)/C=C/c2ccccc2)cc1C | > 100 | > 100 | 
15 | COc1ccc(C(=O)/C=C/c2ccccc2Cl)c(OC)c1 | > 100 | > 100 | 
16 | COc1ccc(C2CCN(C)CC2)cc1C(=O)/C=C/c1ccc(Cl)cc1 | > 100 | > 100 | 
17 | CCN1CCC(c2cc(C(=O)/C=C/c3ccccc3)c(OC)cc2OC)CC1 | > 100 | > 100 | 
18 | CCN1CCC(c2cc(C(=O)/C=C/c3ccc(Cl)cc3)c(OC)cc2OC)CC1 | > 100 | 50 (≈ 20.7 µg/mL) | 
19 | CCN1CCC(c2cc(C(=O)/C=C/c3ccc(N4CCN(C)CC4)cc3)c(OC)cc2OC)CC1 | > 100 | > 100 | 
20 | CCN1CCC(c2cc(C(=O)/C=C/c3ccncc3)c(OC)cc2OC)CC1 | > 100 | > 100 | 
21 | COc1cc(OC)c(C2CCN(C)CC2)cc1C(=O)/C=C/c1ccc(N2CCN(C)CC2)cc1 | > 100 | > 100 | 
22 | COc1cc(OC)c(C2CCN(C)CC2)c(O)c1C(=O)/C=C/c1ccc(C(F)(F)F)cc1 | > 100 | > 100 | 

Row | SMILES | MIC (Escherichia coli) [µM] | MIC (Staphylococcus aureus [1]; [7]) [µM] | also measured
23 | COc1cc(OC)c(C2CCN(C)CC2)cc1C(=O)/C=C/c1ccccc1C | > 100 | > 100 | 
24 | COc1cc(OC)c(C2CCN(C)CC2)cc1C(=O)/C=C/c1ccccc1 | > 100 | > 100 | 
25 | COc1cc(OC)c(C2CCN(C)CC2)c(O)c1C(=O)/C=C/c1ccccc1C | > 100 | 50 (≈ 19.8 µg/mL) | 
26 | COc1cc(OC)c(C2CCN(C)CC2)c(O)c1C(=O)/C=C/c1ccc(F)cc1 | > 100 | > 100 | 
27 | COc1ccc(C(=O)/C=C/c2cccnc2)c(OC)c1 | > 100 | > 100 | 
28 | COc1ccc(/C=C/C(=O)c2c(OC)cc(OC)c(C3CCN(C)CC3)c2O)c(OC)c1 | > 100 | > 100 | 
29 | COc1cc(OC)c(N2CCC(N3CCCCC3)CC2)cc1C(=O)/C=C/c1ccccc1F | > 100 | > 100 | 
30 | O=C(/C=C/c1ccc(Cl)cc1)c1cccc(N2CCNCC2)c1 | > 100 | 25 (≈ 8.17 µg/mL) | hemolysis at 1.5 h, 100 µM [2]: 11.6%
31 | COc1cc(O)c(C(=O)/C=C/c2ccc(F)cc2)cc1C1CCN(C)CC1 | > 100 | > 100 | 
32 | O=C(O)c1ccc(C(=O)/C=C/c2cc(Br)cc(Br)c2)cc1 |  |  | MIC (Staphylococcus aureus [3]): 2 µM (≈ 0.82 µg/mL)
33 | O=C(/C=C/c1ccccc1Cl)c1cccc(N2CCCCC2)c1 | > 100 | > 100 | 
34 | O=C(/C=C/c1ccc(Cl)cc1)c1cccc(N2CCCCC2)c1 | > 100 | > 100 | 
35 | COc1ccc(/C=C/C(=O)c2cccc(N3CCCCC3)c2)c(OC)c1 | > 100 | > 100 | 
36 | Cc1cc(C)cc(-c2ccc(N3CCNCC3)c(/C=C/C(=O)c3ccc(NCCN(C)C)cc3)c2)c1 |  |  | MIC (Staphylococcus aureus [4]): 2 µM (≈ 0.965 µg/mL)
37 | O=C(/C=C/c1ccccc1Cl)c1cccc(N2CCNCC2)c1 | > 100 | > 100 | 
38 | O=C(O)c1ccc(C(=O)/C=C/c2cc(C(F)(F)F)cc(C(F)(F)F)c2)cc1 |  |  | MIC (Staphylococcus aureus [3]): 2 µM (≈ 0.777 µg/mL)
39 | O=C(/C=C/c1ccccc1)c1cccc(N2CCCCC2)c1 | > 100 | > 100 | 
40 | COc1ccc(C(=O)/C=C/c2ccccc2)c(OC)c1 | > 100 | > 100 | 
41 | COc1cc(OC)c(C2CCN(C)CC2)cc1C(=O)/C=C/c1ccccc1Cl (stereo in doubt; 1-5) | > 100 |  | MIC (Staphylococcus aureus [1]): 25 µM (≈ 10 µg/mL)
42 | COc1cc(OC)c(C2CCN(C)CC2)cc1C(=O)/C=C/c1ccccc1Cl (stereo in doubt; 7-140) |  |  | MIC (Staphylococcus aureus [1]): >100 µM
43 | C=CC(C)(C)c1cc(/C=C/C(=O)c2ccc(O)cc2)c(OC)cc1O [LICOAGROCHACONE A] | > 100 | 6.3 (≈ 2.13 µg/mL) | MIC (Staphylococcus aureus [4]): 18.4 µM (≈ 6.23 µg/mL); hemolysis at 1.5 h, 300 µM [5]: 47.9%; hemolysis at 1.5 h, 25 µM [6]: 11.6%; hemolysis at 1.5 h, 100 µM [2]: 19.9%
44 | CC1(C)S[C@@H]2[C@H](NC(=O)Cc3ccccc3)C(=O)N2[C@H]1C(=O)O [PENICILLIN G] |  | 0.1 (≈ 0.0334 µg/mL) | 

Continued, in another order:

Row | MIC (Escherichia coli) [µM] | MIC (Staphylococcus aureus [1]; [7]) [µM] | SMILES | also measured
45 | > 100 | > 100 | COc1ccc(C(=O)/C=C/c2ccc(Cl)cc2)c(OC)c1 | 
46 | > 100 | 50 (≈ 20.8 µg/mL) | COc1cc(OC)c(C2CCN(C)CC2)c(O)c1C(=O)/C=C/c1ccccc1Cl | 
47 | > 100 | > 100 | COc1ccc(C(=O)/C=C/c2ccccn2)c(OC)c1 | 
48 | > 100 | > 100 | COc1cc(OC)c(C2CCN(C)CC2)c(O)c1C(=O)/C=C/c1ccccc1 | 
49 | > 100 | 6.25 (≈ 2.47 µg/mL) | COc1cc(OC)c(C2CCN(C)CC2)c(O)c1C(=O)/C=C/c1ccc(C)cc1 | hemolysis at 1.5 h, 100 µM [2]: 6.7%
50 | > 100 | 50 (≈ 20.6 µg/mL) | COc1ccccc1/C=C/C(=O)c1c(OC)cc(OC)c(C2CCN(C)CC2)c1O | 
51 | > 100 | > 100 | COc1cccc(/C=C/C(=O)c2c(OC)cc(OC)c(C3CCN(C)CC3)c2O)c1 | 
52 | > 100 | > 100 | COc1cc(OC)c(C2CCN(C)CC2)cc1C(=O)/C=C/c1ccc(Cl)cc1 | 
53 | > 100 | > 100 | COc1cc(OC)c(C2CCN(C)CC2)cc1C(=O)/C=C/c1cccnc1 | 
54 | > 100 | > 100 | COc1cc(OC)c(N2CCC(N3CCCCC3)CC2)cc1C(=O)/C=C/c1ccccc1Cl | 
55 | > 100 | > 100 | COc1cc(OC)c(C2CCN(C)CC2)cc1C(=O)/C=C/c1ccccn1 | 
56 | > 100 | > 100 | COc1ccc(C2CCN(C)CC2)cc1C(=O)/C=C/c1ccccc1Cl | 
57 | > 100 | 100 (≈ 33.5 µg/mL) | COc1ccc(C2CCN(C)CC2)cc1C(=O)/C=C/c1ccccc1 | 
58 | > 100 | > 100 | CCN1CCC(c2cc(C(=O)/C=C/c3ccccc3Cl)c(OC)cc2OC)CC1 | 
59 | > 100 | > 100 | COc1cc(O)c(C(=O)/C=C/c2ccccc2Cl)cc1C | 
60 | > 100 | > 100 | COc1cc(OC)c(C2CCN(C)CC2)c(O)c1C(=O)/C=C/c1ccc(N2CCN(C)CC2)cc1 | 
61 | > 100 | 50 (≈ 20.6 µg/mL) | COc1ccc(/C=C/C(=O)c2c(OC)cc(OC)c(C3CCN(C)CC3)c2O)cc1 | 
62 | > 100 | > 100 | COc1cc(O)c(C(=O)/C=C/c2ccccc2OC)cc1C | 
63 | > 100 | 100 (≈ 35.2 µg/mL) | COc1ccc(/C=C/C(=O)c2cccc(N3CCNCC3)c2)c(OC)c1 | 
64 | > 100 | > 100 | O=C(/C=C/c1ccccc1)c1cccc(N2CCNCC2)c1 | 
65 | > 100 | > 100 | COc1ccc(C(=O)/C=C/c2ccncc2)c(OC)c1 [DILMEFONE] | 

Source: ChEMBL document CHEMBL1158169, “Functionalized chalcones with basic functionalities have antibacterial activity against drug sensitive Staphylococcus aureus” (Eur J Med Chem, 2008)
